In ChEMBL document CHEMBL1201862, “PubChem BioAssay data set” (2004):
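48-hour exposure; five concentrations; linearly interpolated endpoints. Abbreviation: GI50, concentration required for 50% inhibition of growth.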 The source made the active and inactive calls. Cut-off read from the data, not from the text of the source: active = GI50 up to about 1.1 µM and inactive = higher.

How the values were obtained:
Assay in all cases: NCI anticancer screen, dose series, 48 h
[1] = test system: NCI-H522
[2] = test system: SF-539
[3] = test system: A498
[4] = test system: SNB-19
[5] = test system: UO-31
[6] = test system: HT-29
[7] = test system: DMS-273
[8] = test system: RXF 393
[9] = test system: M19-MEL
[10] = test system: RXF 631
[11] = test system: HCT-116
[12] = test system: TK-10
[13] = test system: A549
[14] = test system: RPMI-8226
[15] = test system: XF498
[16] = test system: ACHN
[17] = test system: SN12C
[18] = test system: SK-MEL-28
[19] = test system: UACC-62
[20] = test system: IGROV-1
[21] = test system: CAKI-1
[22] = test system: CCRF-CEM
[23] = test system: SW-620
[24] = test system: NCI-H23
[25] = test system: HOP-18
[26] = test system: SF-268
[27] = test system: U-251
[28] = test system: COLO 205
[29] = test system: DLD-1
[30] = test system: M14
[31] = test system: LOX IMVI
[32] = test system: MOLT-4
[33] = test system: EKVX
[34] = test system: DMS-114
[35] = test system: SK-MEL-5
[36] = test system: NCI-H460
[37] = test system: HL-60
[38] = test system: 786-0
[39] = test system: SK-OV-3
[40] = test system: LXFL 529
[41] = test system: K562
[42] = test system: KM-20L2
[43] = test system: SF-295
[44] = test system: OVCAR-8
[45] = test system: HCT-15
[46] = test system: HOP-92
[47] = test system: OVCAR-5
[48] = test system: OVCAR-3
[49] = test system: HOP-62
[50] = test system: SNB-75
[51] = test system: NCI-H226
[52] = test system: SR
[53] = test system: UACC-257
[54] = test system: Malme-3M
[55] = test system: SK-MEL-2
[56] = test system: SNB-78
[57] = test system: KM12
[58] = test system: OVCAR-4
[59] = test system: HCC 2998

COc1ccc(/C=C/C(=O)c2c(-c3ccccc3)nn(C)c(=O)c2N2CCOCC2)cc1
GI50 [1]: > 100 µM (inactive) | GI50 [2]: > 100 µM (inactive) | GI50 [3]: > 100 µM (inactive) | GI50 [4]: > 100 µM (inactive) | GI50 [5]: > 100 µM (inactive) | GI50 [6]: > 100 µM (inactive) | GI50 [7]: > 100 µM (inactive) | GI50 [8]: > 100 µM (inactive) | GI50 [9]: > 100 µM (inactive) | GI50 [10]: > 100 µM (inactive) | GI50 [11]: 54.2 µM (inactive) | GI50 [12]: > 100 µM (inactive) | GI50 [13]: > 100 µM (inactive) | GI50 [14]: 38.5 µM (inactive) | GI50 [15]: 0.0601 µM (active) | GI50 [16]: > 100 µM (inactive) | GI50 [17]: > 100 µM (inactive) | GI50 [18]: > 100 µM (inactive) | GI50 [19]: > 100 µM (inactive) | GI50 [20]: > 100 µM (inactive) | GI50 [21]: > 100 µM (inactive) | GI50 [22]: 63 µM (inactive) | GI50 [23]: > 100 µM (inactive) | GI50 [24]: > 100 µM (inactive) | GI50 [25]: > 100 µM (inactive) | GI50 [26]: > 100 µM (inactive) | GI50 [27]: > 100 µM (inactive) | GI50 [28]: > 100 µM (inactive) | GI50 [29]: > 100 µM (inactive) | GI50 [30]: > 100 µM (inactive) | GI50 [31]: 68.1 µM (inactive) | GI50 [32]: 43.5 µM (inactive) | GI50 [33]: > 100 µM (inactive) | GI50 [34]: > 100 µM (inactive) | GI50 [35]: 97.9 µM (inactive) | GI50 [36]: > 100 µM (inactive) | GI50 [37]: 21.4 µM (inactive) | GI50 [38]: > 100 µM (inactive) | GI50 [39]: > 100 µM (inactive) | GI50 [40]: > 100 µM (inactive) | GI50 [41]: 40.5 µM (inactive) | GI50 [42]: 60.3 µM (inactive) | GI50 [43]: > 100 µM (inactive) | GI50 [44]: > 100 µM (inactive) | GI50 [45]: 65.9 µM | GI50 [46]: 6.92 µM (inactive)

CCOc1ccccc1/N=N/c1c(-c2ccccc2)nn(C(=O)CC(=O)Nc2cccc(C)c2)c1-c1ccccc1
GI50 [1]: > 100 µM (inactive) | GI50 [47]: > 100 µM (inactive) | GI50 [2]: > 100 µM (inactive) | GI50 [48]: > 100 µM (inactive) | GI50 [49]: > 100 µM (inactive) | GI50 [4]: > 100 µM (inactive) | GI50 [5]: 35.2 µM (inactive) | GI50 [6]: 39.6 µM (inactive) | GI50 [50]: 27.4 µM (inactive) | GI50 [51]: > 100 µM (inactive) | GI50 [7]: > 100 µM (inactive) | GI50 [52]: > 100 µM (inactive) | GI50 [8]: > 100 µM (inactive) | GI50 [9]: > 100 µM (inactive) | GI50 [10]: 26.2 µM (inactive) | GI50 [11]: > 100 µM (inactive) | GI50 [12]: > 100 µM (inactive) | GI50 [13]: > 100 µM (inactive) | GI50 [14]: > 100 µM (inactive) | GI50 [15]: > 100 µM (inactive) | GI50 [16]: 54.3 µM (inactive) | GI50 [17]: > 100 µM (inactive) | GI50 [18]: > 100 µM (inactive) | GI50 [19]: > 100 µM (inactive) | GI50 [20]: > 100 µM (inactive) | GI50 [21]: > 100 µM (inactive) | GI50 [22]: > 100 µM (inactive) | GI50 [53]: > 100 µM (inactive) | GI50 [54]: > 100 µM (inactive) | GI50 [23]: > 100 µM (inactive) | GI50 [24]: > 100 µM (inactive) | GI50 [25]: > 100 µM (inactive) | GI50 [26]: 74.8 µM (inactive) | GI50 [55]: > 100 µM (inactive) | GI50 [27]: > 100 µM (inactive) | GI50 [28]: > 100 µM (inactive) | GI50 [29]: 62.8 µM (inactive) | GI50 [30]: > 100 µM (inactive) | GI50 [31]: > 100 µM (inactive) | GI50 [32]: > 100 µM (inactive) | GI50 [33]: 56.6 µM (inactive) | GI50 [56]: > 100 µM (inactive) | GI50 [34]: 44.8 µM (inactive) | GI50 [57]: 94 µM (inactive) | GI50 [35]: > 100 µM (inactive) | GI50 [36]: > 100 µM (inactive) | GI50 [37]: > 100 µM (inactive) | GI50 [38]: > 100 µM (inactive) | GI50 [39]: > 100 µM (inactive) | GI50 [40]: > 100 µM (inactive) | GI50 [41]: 62.7 µM (inactive) | GI50 [42]: > 100 µM (inactive) | GI50 [58]: > 100 µM (inactive) | GI50 [43]: > 100 µM (inactive) | GI50 [44]: > 100 µM (inactive) | GI50 [59]: 22.7 µM (inactive) | GI50 [46]: > 100 µM (inactive)

CC1=C(C(=O)Nc2ccccc2)C(c2cc(Cl)cc(Cl)c2)C(C(=O)Nc2ccccc2)=C(C)N1
GI50 [1]: 5.36 µM (inactive) | GI50 [47]: 19.4 µM (inactive) | GI50 [2]: 14.8 µM (inactive) | GI50 [3]: 22.6 µM (inactive) | GI50 [48]: 8.22 µM (inactive) | GI50 [49]: 13.6 µM (inactive) | GI50 [4]: 14.2 µM (inactive) | GI50 [5]: 13.9 µM (inactive) | GI50 [6]: 4.65 µM (inactive) | GI50 [50]: 10.8 µM (inactive) | GI50 [51]: 15.1 µM (inactive) | GI50 [7]: 10.2 µM (inactive) | GI50 [52]: 2.72 µM (inactive) | GI50 [8]: 12.9 µM (inactive) | GI50 [9]: 10.4 µM (inactive) | GI50 [10]: 18 µM (inactive) | GI50 [11]: 9.53 µM (inactive) | GI50 [12]: 16.7 µM (inactive) | GI50 [13]: 20.8 µM (inactive) | GI50 [14]: 3.84 µM (inactive) | GI50 [15]: 13.4 µM (inactive) | GI50 [16]: 8.15 µM (inactive) | GI50 [17]: 10.8 µM (inactive) | GI50 [18]: 14.2 µM (inactive) | GI50 [19]: 3.94 µM (inactive) | GI50 [20]: 16.1 µM (inactive) | GI50 [21]: 12.1 µM (inactive) | GI50 [22]: 3.02 µM (inactive) | GI50 [53]: 12.3 µM (inactive) | GI50 [54]: 14.4 µM (inactive) | GI50 [23]: 8.28 µM (inactive) | GI50 [24]: 5.37 µM (inactive) | GI50 [25]: 12.5 µM (inactive) | GI50 [26]: 9.79 µM (inactive) | GI50 [55]: 12.1 µM (inactive) | GI50 [27]: 3.33 µM (inactive) | GI50 [28]: 17 µM (inactive) | GI50 [29]: 4.14 µM (inactive) | GI50 [30]: 12.4 µM (inactive) | GI50 [31]: 4.79 µM (inactive) | GI50 [32]: 3.54 µM (inactive) | GI50 [33]: 17.4 µM (inactive) | GI50 [56]: 17.1 µM (inactive) | GI50 [34]: 4.26 µM (inactive) | GI50 [57]: 2.92 µM (inactive) | GI50 [35]: 13.8 µM (inactive) | GI50 [36]: 18.6 µM (inactive) | GI50 [37]: 1.78 µM (inactive) | GI50 [38]: 9.04 µM (inactive) | GI50 [39]: 36.8 µM (inactive) | GI50 [40]: 3.77 µM (inactive) | GI50 [41]: 1.35 µM (inactive) | GI50 [42]: 9.06 µM (inactive) | GI50 [58]: 2.43 µM (inactive) | GI50 [43]: 10.9 µM (inactive) | GI50 [44]: 10.5 µM (inactive) | GI50 [59]: 11.6 µM (inactive) | GI50 [45]: 1.71 µM
